The source made the active and inactive calls. No cut-off for these calls is given here.

Experiment [1] concerns Staphylococcus aureus. Description: Synergistic antibacterial activity against community acquired methicillin resistant Staphylococcus aureus USA300 incubated for 18 hrs by checkerboard broth microdilution assay. Format: functional. A general note: Dilution methods test growth across graded concentrations, often in twofold steps.
Experiment [2] deals with Staphylococcus aureus. Description: Synergistic antibacterial activity against community acquired methicillin resistant Staphylococcus aureus USA300 assessed as fractional inhibitory concentration incubated for 18 hrs by checkerboard broth microdilution assay. Format: functional.
Experiment [3] concerns Staphylococcus aureus. Nature of the experiment: Synergistic antibacterial activity against community acquired methicillin resistant Staphylococcus aureus USA300 assessed as fractional inhibitory concentration index in presence of cefuroxime incubated for 18 hrs by checkerboard broth microdilution assay. The format is functional.
For experiment [4], the system named is Staphylococcus aureus. Nature of the experiment: Synergistic antibacterial activity against community acquired methicillin resistant Staphylococcus aureus USA300 assessed as potentiation of cefuroxime-induced antibacterial activity by measuring cefuroxime MIC incubated for 18 hrs by checkerboard broth microdilution assay. The format is functional.
Experiment [5] deals with Staphylococcus aureus. Nature of the experiment: Synergistic antibacterial activity against community acquired methicillin resistant Staphylococcus aureus USA300 assessed as potentiation of cefuroxime-induced antibacterial activity by measuring cefuroxime fractional inhibitory concentration incubated for 18 hrs by checkerboard broth microdilution assay. The format is functional.

Experiment [6] deals with Staphylococcus aureus. Nature of the experiment: Inhibition of Staphylococcus aureus UPPS using FPP and IPP as substrates preincubated for 20 mins followed by substrate addition.

What is called MIC is the lowest concentration that inhibits growth of the organism. On to `CCCc1cc(N2CCCCCC2)n2ncc(-c3ccc(F)cc3)c2n1`, for which the MIC is over 128 mg/L in experiment [1] and over 32 mg/L in experiment [4]. The FIC in experiment [2] and in experiment [5] was 0.0312 throughout. For the same compound, the “fractional inhibitory concentration index (FICI)” value in experiment [3] was 0.0625.
On to `CCc1cc(N2CCCCCCC2)n2ncc(-c3ccc(F)cc3)c2n1`, for which the values for the minimum inhibitory concentration (MIC) in experiment [1] and in experiment [4] were over 128 mg/L and over 32 mg/L, respectively. Moreover, the FIC is reported as 0.125 in experiment [2] and 0.0625 in experiment [5]. Besides, the “fractional inhibitory concentration index (FICI)” value in experiment [3] stood at 0.1875.
On the same counts, the results for `CCc1cc(N2CCCCCC2)n2ncc(-c3ccc(F)cc3)c2n1` are over 128 mg/L, over 32 mg/L, 0.0312, 0.0156 and 0.0468.
Consider `CCN(CC)CCOc1ccc(/C(=C(/Cl)c2ccccc2)c2ccccc2)cc1` [ENCLOMIPHENE], for which the MIC in experiment [1] came out at 16 mg/L; in experiment [4], 256 mg/L. For the same compound, the FIC in experiment [2] is 0.25; in experiment [5], 0.063. In addition, the “fractional inhibitory concentration index (FICI)” value in experiment [3] is given as 0.313.
On the same counts, the results for `Cc1cc(N2CCOCC2)n2ncc(-c3ccc(F)cc3)c2n1` are over 128 mg/L, over 32 mg/L, 0.03125, 0.125 and 0.156.
Taken in the same sequence, the figures for `Cc1cc(N2CCCCCCC2)n2ncc(-c3ccc(F)cc3)c2n1` were over 128 mg/L, over 32 mg/L, 0.0312, 0.0312 and 0.0625.
Taken in the same sequence, the figures for `Cc1cc(N2CCCCCC2)n2ncc(-c3cccc(F)c3)c2n1` were over 128 mg/L, over 32 mg/L, 0.0625, 0.0312 and 0.0937.
Regarding `Cc1cc(N2CCCCCC2)n2ncc(-c3ccc(F)cc3)c2n1`, the values for the minimum inhibitory concentration (MIC) in experiment [1] and in experiment [4] were over 128 mg/L and over 32 mg/L, respectively. Besides, the inhibition entry in experiment [6] was “Active”. Also, the results for the FIC in experiment [2] and in experiment [5] were 0.0625 and 0.0156, respectively. Also, in experiment [3], the “fractional inhibitory concentration index (FICI)” value was found to be 0.0781.

These data come from ChEMBL document CHEMBL5036338, “Structural Insights into the Inhibition of Undecaprenyl Pyrophosphate Synthase from Gram-Positive Bacteria” (2021).
